Reference: paper doi:10.1101/2022.12.17.520850v1, “A-ring-fused pyrazoles of dihydrotestosterone targeting prostate cancer cells via the downregulation of the androgen receptor” (biorxiv, 2022)

Biological target: T1, human recombinant AR-LBD (Homo sapiens, UniProt P10275)
T1 sequence (P10275 664-920): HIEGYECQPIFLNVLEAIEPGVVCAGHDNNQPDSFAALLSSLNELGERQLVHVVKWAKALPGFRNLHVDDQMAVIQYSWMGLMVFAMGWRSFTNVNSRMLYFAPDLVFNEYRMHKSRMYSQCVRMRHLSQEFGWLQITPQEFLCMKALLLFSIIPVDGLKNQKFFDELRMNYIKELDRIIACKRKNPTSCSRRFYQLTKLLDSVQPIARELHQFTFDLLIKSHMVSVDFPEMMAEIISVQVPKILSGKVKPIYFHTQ
Test: microscale thermophoresis
Type: binding
Settings: […] 3d, […] His-tagged AR-LBD, […] Tris, […] NaCl, pH […] DTT, […] Tween; labelled protein

Cc1c2c(nn1-c1ccc(F)cc1)C[C@@H]1CC[C@@H]3[C@H](CC[C@]4(C)[C@@H](O)CC[C@@H]34)[C@@]1(C)C2 [3d]
microscale thermophoresis: confirmed thus binding of 3d into the AR-LBD
